As usually defined, the pIC50 is the IC50 on a negative log10 scale, so that one unit is a factor of ten.

Among the data in patent publication US8269026B2, “Lupane derivatives useful for treating HIV” (priority 2008, dated 2012) are IC50 values, retold here.

The subject of this assay is HIV-1 (HIVIIIB) replication in MT2 cell line. Nature of the assay: HIV-1 replication in MT2 cell line with and without 30% human serum (viral RT activity in supernatant). Format: cell-based. The note with it: Human immunodeficiency virus 1, MT2 cells, average IC50 if tested more than once. The method, boiled down: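 MT2 cells infected with HIV-1 IIIB at MOI 0.5 for 3 h, washed, seeded at 0.5×10^6/ml in RPMI/10% FBS with serially diluted compound, with or without 30% human serum; medium and compound refreshed on day 3. RT activity in supernatant at day 5; IC50 and IC90 derived.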

The mark [1] stands for this setting: with 30% human serum, read-out: MT2 (HIVIIIB) with HS 30% IC50 range.
Where [2] appears, read: without human serum, read-out: MT2 (HIVIIIB) IC50 range.

pIC50: −log10 of the molar value. Where two headings read alike, the source gives them in different places.

With `CC(=O)N1CCN(C(=O)N[C@@]23CC[C@]4(C)[C@H](CC[C@@H]5[C@@]6(C)CC[C@H](OC(=O)CC(C)(C)C(=O)O)C(C)(C)[C@@H]6CC[C@]54C)C2=C(C(C)C)C(=O)C3)CC1` [17-17, 3β-O-(3′,3′-Dimethylsuccinyl)-17β-[(4-acetyl-piperazine-1-carbonyl)-amino]-21-oxolup-18-ene], the pIC50 under setting [1] is > 6.70.
The same measure, in the same setting: under `CC(C)C1=C2C3CCC4[C@@]5(C)CC[C@H](OC(=O)CC(C)(C)C(=O)O)C(C)(C)C5CC[C@@]4(C)[C@]3(C)CC[C@@]2(NC(=O)C2CCOCC2)CC1=O` (stereo partly drawn) [19-30, 3β-O-(3′,3′-Dimethylsuccinyl)-17β-tetrahydro-pyran-4-carbonylamino-21-oxolup-18-ene] stands > 6.70; under `CC(C)C1=C2C3CCC4[C@@]5(C)CC[C@H](OC(=O)CC(C)(C)C(=O)O)C(C)(C)C5CC[C@@]4(C)[C@]3(C)CC[C@@]2(NC(=O)N(C)C(C)C)CC1=O` (stereo partly drawn) [17-18, 3β-O-(3′,3′-Dimethylsuccinyl)-17β-[N′-isopropyl-N′-methyl-ureido]-21-oxolup-18-ene], > 6.70; under `CC(C)C1=C2[C@H]3CC[C@@H]4[C@@]5(C)CC[C@H](OC(=O)CC(C)(C)C(=O)O)C(C)(C)C5CC[C@@]4(C)[C@]3(C)CC[C@@]2(NC(=O)Nc2cnn(C)c2)CC1=O` (stereo partly drawn) [17-37, 3β-O-(3′,3′-Dimethylsuccinyl)-17β-[N′-(1-methyl-1H-pyrazol-4-yl)ureido]-21-oxolup-18-ene], > 6.70.
Consider `CC(C)C1=C2C3CCC4[C@@]5(C)CC[C@H](OC(=O)CC(C)(C)C(=O)O)C(C)(C)C5CC[C@@]4(C)[C@]3(C)CC[C@@]2(NC(=O)NCc2cccnc2)CC1=O` (stereo partly drawn) [17-12, 3β-O-(3′,3′-Dimethylsuccinyl)-17β-[N′-(pyridin-3-ylmethyl)ureido]-21-oxolup-18-ene], for which the pIC50 under setting [1] is > 6.70.
On the same count and under the same terms, under `CC(C)C1=C2C3CCC4[C@@]5(C)CC[C@H](OC(=O)CC(C)(C)C(=O)O)C(C)(C)C5CC[C@@]4(C)[C@]3(C)CC[C@@]2(NC(=O)N[C@H](C)C(F)(F)F)CC1=O` (stereo partly drawn) [17-51, 3β-O-(3′,3′-Dimethylsuccinyl)-17β-[N′-((R)-2,2,2-trifluoro-1-methyl-ethyl)-ureido]-21-oxolup-18-ene] stands > 6.70; under `CC(C)C1=C2[C@H]3CC[C@@H]4[C@@]5(C)CC[C@H](OC(=O)CC(C)(C)C(=O)O)C(C)(C)[C@@H]5CC[C@@]4(C)[C@]3(C)CC[C@@]2(NC(=O)[C@@H]2CCCCN2C)CC1=O` [19-65, 3β-O-(3′,3′-Dimethylsuccinyl)-17β-((S)-1-methylpiperidine-2-amido)-21-oxolup-18-ene], > 6.70; under `CC(C)C1=C2[C@H]3CC[C@@H]4[C@@]5(C)CC[C@H](OC(=O)[C@H]6CC[C@@](C)(C(=O)O)C6(C)C)C(C)(C)[C@@H]5CC[C@@]4(C)[C@]3(C)CC[C@@]2(NC(=O)OC(C)(C)C)CC1=O` [14-3, 3β-O-[(1′R,3′S)-1′,2′,2′-Trimethyl-cyclopentane-3′-carboxylic acid-1′-carboxyl]-17β-[N-tert-butyloxycarbonyl-amino]-21-oxolup-18-ene], > 6.70.
With `CC(C)C1=C2[C@H]3CC[C@@H]4[C@@]5(C)CC[C@H](OC(=O)CC(C)(C)C(=O)O)C(C)(C)[C@@H]5CC[C@@]4(C)[C@]3(C)CC[C@@]2(NC2CCN(C(=O)OC(C)(C)C)CC2)CC1=O` [16-1, 3β-O-(3′,3′-Dimethylsuccinyl)-17β-(1-tert-butyloxycarbonylpiperidine-4-amino]-21-oxolup-18-ene], the pIC50 by setting is: under setting [1], > 6.70; under setting [2], > 6.70.
Take `CC(C)C1=C2C3CCC4[C@@]5(C)CC[C@H](OC(=O)CC(C)(C)C(=O)O)C(C)(C)C5CC[C@@]4(C)[C@]3(C)CC[C@@]2(NC(=O)NCC2CCCCC2)CC1=O` (stereo partly drawn) [17-8, 3β-O-(3′,3′-Dimethylsuccinyl)-17β-[N′-(cyclohexylmethyl)ureido]-21-oxolup-18-ene]: the pIC50 under setting [1] is > 6.70.
Regarding `CC(C)C1=C2[C@H]3CC[C@@H]4[C@@]5(C)CC[C@H](OC(=O)CC(C)(C)C(=O)O)C(C)(C)[C@@H]5CC[C@@]4(C)[C@]3(C)CC[C@@]2(NC(=O)NC2CCN(C(=O)OC(C)(C)C)CC2)CC1=O` [17-9, 3β-O-(3′,3′-Dimethylsuccinyl)-17β[N′-(1-tert-butyloxycarbonyl-piperidin-4-yl)-ureido]-21-oxolup-18-ene], under setting [1], the pIC50 was > 6.70.
Still for that read-out and setting: the value for `CC(C)C1=C2C3CCC4[C@@]5(C)CC[C@H](OC(=O)CC(C)(C)C(=O)O)C(C)(C)C5CC[C@@]4(C)[C@]3(C)CC[C@@]2(NC(=O)NCc2ccccn2)CC1=O` (stereo partly drawn) [17-27, 3β-O-(3′,3′-Dimethylsuccinyl)-17β-[N′-(pyridin-2-ylmethyl)ureido]-21-oxolup-18-ene] was > 6.70; that for `CC(C)C1=C2[C@H]3CC[C@@H]4[C@@]5(C)CC[C@H](OC(=O)CC(C)(C)C(=O)O)C(C)(C)[C@@H]5CC[C@@]4(C)[C@]3(C)CC[C@@]2(NC(=O)N2CCOCC2)CC1=O` [17-13, 3β-O-(3′,3′-Dimethylsuccinyl)-17β-[(morpholine-4-carbonyl)-amino]-21-oxolup-18-ene] was > 6.70.
For the compound `CC(C)C1=C2[C@H]3CC[C@@H]4[C@@]5(C)CC[C@H](OC(=O)CC(C)(C)C(=O)O)C(C)(C)[C@@H]5CC[C@@]4(C)[C@]3(C)CC[C@@]2(NC(=O)NC2CNC2)CC1=O` [17-35], under setting [1], the pIC50 was 6.00 to 6.70.
On to `CC(C)C1=C2[C@H]3CC[C@@H]4[C@@]5(C)CC[C@H](OC(=O)CC(C)(C)C(=O)O)C(C)(C)[C@@H]5CC[C@@]4(C)[C@]3(C)CC[C@@]2(NC(=O)c2ccc(F)cc2)CC1=O` [19-13, 3β-O-(3′,3′-Dimethylsuccinyl)-17β-(4-fluorobenzamido)-21-oxolup-18-ene], for which the pIC50 runs as follows: under setting [1], > 6.70; under setting [2], > 6.70.
Regarding `CC(C)C1=C2[C@H]3CC[C@@H]4[C@@]5(C)CC[C@H](OC(=O)CC(C)(C)C(=O)O)C(C)(C)[C@@H]5CC[C@@]4(C)[C@]3(C)CC[C@@]2(NC(=O)c2nccs2)CC1=O` [19-21, 3β-O-(3′,3′-Dimethylsuccinyl)-17β-(1,3-thiazole-2-amido)-21-oxolup-18-ene], under setting [1], the pIC50 is > 6.70.
On the same count and under the same terms, under `CC(C)C1=C2[C@H]3CC[C@@H]4[C@@]5(C)CC[C@H](OC(=O)CC(C)(C)C(=O)O)C(C)(C)[C@@H]5CC[C@@]4(C)[C@]3(C)CC[C@@]2(NC(=O)Nc2cncnc2)CC1=O` [17-44, 3β-O-(3′,3′-Dimethylsuccinyl)-17β-(N′-pyrimidin-5-yl-ureido)-21-oxolup-18-ene] stands > 6.70; under `CC(C)C1=C2[C@H]3CC[C@@H]4[C@@]5(C)CC[C@H](OC(=O)CC(C)(C)C(=O)O)C(C)(C)[C@@H]5CC[C@@]4(C)[C@]3(C)CC[C@@]2(NC(=O)N2CCN(C)CC2)CC1=O` [17-16, 3β-O-(3′,3′-Dimethylsuccinyl)-17β-[(4-methyl-piperazine-1-carbonyl)-amino]-21-oxolup-18-ene], > 6.70.
Still for that read-out and setting: the value for `CC(C)C1=C2C3CCC4[C@@]5(C)CC[C@H](OC(=O)CC(C)(C)C(=O)O)C(C)(C)C5CC[C@@]4(C)[C@]3(C)CC[C@@]2(NC(=O)OC2CCSCC2)CC1=O` (stereo partly drawn) [20-14, 3β-O-(3′,3′-Dimethylsuccinyl)-17β-(tetrahydro-thiopyran-4-oxycarbonylamino)-21-oxolup-18-ene] was > 6.70; that for `CC(C)C1=C2[C@H]3CC[C@@H]4[C@@]5(C)CC[C@H](OC(=O)CC(C)(C)C(=O)O)C(C)(C)[C@@H]5CC[C@@]4(C)[C@]3(C)CC[C@@]2(NC(=O)c2ccncc2)CC1=O` [19-14, 3β-O-(3′,3′-Dimethylsuccinyl)-17β-(pyridin4-yl)amido-21-oxolup-18-ene] was > 6.70.
On the same count and under the same terms, the value for `CC(C)C1=C2C3CCC4[C@@]5(C)CC[C@H](OC(=O)CC(C)(C)C(=O)O)C(C)(C)C5CC[C@@]4(C)[C@]3(C)CC[C@@]2(NC(=O)OCC2CCN(C)CC2)CC1=O` (stereo partly drawn) [20-18, 3β-O-(3′,3′-Dimethylsuccinyl)-17β-(1-methylpiperidine-4-methoxycarbonylamino)-21-oxolup-18-ene] was > 6.70.
On to `CC(C)C1=C2[C@H]3CC[C@@H]4[C@@]5(C)CC[C@H](OC(=O)CC(C)(C)C(=O)O)C(C)(C)[C@@H]5CC[C@@]4(C)[C@]3(C)CC[C@@]2(NC(=O)c2cnn(C)c2)CC1=O` [19-35, 3β-O-(3′,3′-Dimethylsuccinyl)-17β-(1-methyl-1H-pyrazole-4-amido)-21-oxolup-18-ene], for which the pIC50 reads like this: under setting [1], > 6.70; under setting [2], > 6.70.
For `CC(C)C1=C2[C@H]3CC[C@@H]4[C@@]5(C)CC[C@H](OC(=O)CC(C)(C)C(=O)O)C(C)(C)[C@@H]5CC[C@@]4(C)[C@]3(C)CC[C@@]2(NC(=O)c2cncn2C)CC1=O` [19-18, 3β-O-(3′,3′-Dimethylsuccinyl)-17β-(1-methyl-1H-imidazole-5-amido)-21-oxolup-18-ene], the pIC50 under setting [1] was > 6.70.
On the same count and under the same terms, under `Cc1cccc(C(=O)N[C@@]23CC[C@]4(C)[C@H](CC[C@@H]5[C@@]6(C)CC[C@H](OC(=O)CC(C)(C)C(=O)O)C(C)(C)[C@@H]6CC[C@]54C)C2=C(C(C)C)C(=O)C3)c1` [19-44, 3β-O-(3′,3′-Dimethylsuccinyl)-17β-(3-methylbenzamido)-21-oxolup-18-ene] stands > 6.70.
On to `CC(C)C1=C2C3CCC4[C@@]5(C)CC[C@H](OC(=O)CC(C)(C)C(=O)O)C(C)(C)C5CC[C@@]4(C)[C@]3(C)CC[C@@]2(NC(=O)NC2CCNCC2)CC1=O` (stereo partly drawn) [17-10, 3β-O-(3′,3′-Dimethylsuccinyl)-17β-(N′-piperidin-4-yl-ureido)-21-oxolup-18-ene], for which the pIC50 under setting [1] was < 6.00.
Take `CC(C)C1=C2[C@H]3CC[C@@H]4[C@@]5(C)CC[C@H](OC(=O)CC(C)(C)C(=O)O)C(C)(C)[C@@H]5CC[C@@]4(C)[C@]3(C)CC[C@@]2(NC(=O)CCN2CCCC2=O)CC1=O` [19-41, 3β-O-(3′,3′-Dimethylsuccinyl)-17β-[3-(2-oxo-pyrrolidin-1-yl)-propionamido]-21-oxolup-18-ene]: the pIC50 under setting [1] was > 6.70.
